Calls of active or inactive are those of the source. The rule behind the calls is not given here.
Assays:
Rattus norvegicus [1] = test: Inhibition of retinal vascular leakage in STZ-induced Wistar rat diabetic retinopathy model assessed as reduction in FITC-dextran leakage at 50 ug/eye administered intravitreally measured after 3 days by fluorescence microscopic method; format: functional
Rattus norvegicus [2] = test: Inhibition of retinal vascular leakage in STZ-induced Wistar rat diabetic retinopathy model assessed as Evans blue albumin level in retina at 50 ug/eye administered intravitreally measured after 3 days (reference value: 82.94 +/- 11.2 ug/g); format: functional
Rattus norvegicus [3] = test: Inhibition of retinal leukostasis in STZ-induced Wistar rat diabetic retinopathy model assessed as adherent leukocyte count per retina at 50 ug/eye administered intravitreally measured after 3 days by FITC-ConA staining based fluorescence microscopic method (reference value: 52 +/- 10); format: functional
Rattus norvegicus [4] = test: Downregulation of TNFalpha level in STZ-induced Wistar rat diabetic retinopathy model at 50 ug/eye administered intravitreally measured after 3 days by Western blot method; format: functional
Rattus norvegicus [5] = test: Downregulation of ICAM-1 level in STZ-induced Wistar rat diabetic retinopathy model at 50 ug/eye administered intravitreally measured after 3 days by Western blot method; format: functional
Rattus norvegicus [6] = test: Toxicity in STZ-induced Wistar rat diabetic retinopathy model assessed as effect on retina thickness at 75 ug/eye administered intravitreally measured after 3 days by hematoxylin and eosin staining based assay; conditions: in vivo, topical_or_ocular, 72 h
Rattus norvegicus [7] = test: Toxicity in STZ-induced Wistar rat diabetic retinopathy model assessed as inflammatory cells accumulation in vitreous at 75 ug/eye administered intravitreally measured after 3 days by hematoxylin and eosin staining based assay; conditions: in vivo, topical_or_ocular, 72 h
Rattus norvegicus [8] = test: Toxicity in STZ-induced Wistar rat diabetic retinopathy model assessed as inflammatory cells accumulation in retina at 75 ug/eye administered intravitreally measured after 3 days by hematoxylin and eosin staining based assay; conditions: in vivo, topical_or_ocular, 72 h
Rattus norvegicus [9] = test: Toxicity in STZ-induced Wistar rat diabetic retinopathy model assessed as inflammatory cells accumulation in choroid tissues at 75 ug/eye administered intravitreally measured after 3 days by hematoxylin and eosin staining based assay; conditions: in vivo, topical_or_ocular, 72 h
Rattus norvegicus [10] = test: Toxicity in STZ-induced Wistar rat diabetic retinopathy model assessed as TUNEL positive cells in retinal layers at 75 ug/eye administered intravitreally measured after 3 days by fluorescence microscopic method; conditions: in vivo, topical_or_ocular, 72 h
[11] = molecular target: T1, Inhibitor of nuclear factor kappa-B kinase subunit beta (Homo sapiens) (UniProt O14920); test: Inhibition of IKKbeta in HUVEC assessed as reduction in TNFalpha-stimulated IkBalpha phosphorylation at Ser-32 residue preincubated with cells followed by TNFalpha stimulation measured after 30 mins by Western blot method
T1 sequence (whole entry): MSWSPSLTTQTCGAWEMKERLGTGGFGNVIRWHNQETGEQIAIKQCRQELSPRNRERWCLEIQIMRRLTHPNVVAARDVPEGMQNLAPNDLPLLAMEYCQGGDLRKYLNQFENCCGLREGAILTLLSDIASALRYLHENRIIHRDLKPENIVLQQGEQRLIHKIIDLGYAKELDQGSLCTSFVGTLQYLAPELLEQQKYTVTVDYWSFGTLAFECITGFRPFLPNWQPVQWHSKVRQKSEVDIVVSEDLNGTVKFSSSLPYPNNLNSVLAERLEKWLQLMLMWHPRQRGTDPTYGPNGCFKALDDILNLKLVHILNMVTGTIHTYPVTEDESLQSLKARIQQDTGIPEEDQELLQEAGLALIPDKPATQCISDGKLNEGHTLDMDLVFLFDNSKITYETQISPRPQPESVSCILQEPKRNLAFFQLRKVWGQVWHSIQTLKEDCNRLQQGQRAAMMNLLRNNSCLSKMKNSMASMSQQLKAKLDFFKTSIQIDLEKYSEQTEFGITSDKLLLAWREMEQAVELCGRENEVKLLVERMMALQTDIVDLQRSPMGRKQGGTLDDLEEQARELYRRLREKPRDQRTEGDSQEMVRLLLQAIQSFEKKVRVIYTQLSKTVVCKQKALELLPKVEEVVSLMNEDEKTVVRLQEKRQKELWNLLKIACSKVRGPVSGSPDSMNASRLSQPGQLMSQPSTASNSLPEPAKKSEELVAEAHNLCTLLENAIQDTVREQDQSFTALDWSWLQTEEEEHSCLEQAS

[12] = molecular target: T1, Inhibitor of nuclear factor kappa-B kinase subunit beta (Homo sapiens); test: Inhibition of TNFalpha-stimulated IKKbeta phosphorylation at Ser-177 residue in HUVEC preincubated with cells followed by TNFalpha stimulation measured after 30 mins by Western blot method
[13] = molecular target: Transcription factor p65 (Homo sapiens) (UniProt Q04206); test: Inhibition of TNFalpha-stimulated NF-kB p65 phosphorylation at Ser-536 residue in HUVEC up to 20 uM preincubated with cells followed by TNFalpha stimulation measured after 30 mins by Western blot method
Chain of Transcription factor p65 (Homo sapiens) (Q04206 whole entry): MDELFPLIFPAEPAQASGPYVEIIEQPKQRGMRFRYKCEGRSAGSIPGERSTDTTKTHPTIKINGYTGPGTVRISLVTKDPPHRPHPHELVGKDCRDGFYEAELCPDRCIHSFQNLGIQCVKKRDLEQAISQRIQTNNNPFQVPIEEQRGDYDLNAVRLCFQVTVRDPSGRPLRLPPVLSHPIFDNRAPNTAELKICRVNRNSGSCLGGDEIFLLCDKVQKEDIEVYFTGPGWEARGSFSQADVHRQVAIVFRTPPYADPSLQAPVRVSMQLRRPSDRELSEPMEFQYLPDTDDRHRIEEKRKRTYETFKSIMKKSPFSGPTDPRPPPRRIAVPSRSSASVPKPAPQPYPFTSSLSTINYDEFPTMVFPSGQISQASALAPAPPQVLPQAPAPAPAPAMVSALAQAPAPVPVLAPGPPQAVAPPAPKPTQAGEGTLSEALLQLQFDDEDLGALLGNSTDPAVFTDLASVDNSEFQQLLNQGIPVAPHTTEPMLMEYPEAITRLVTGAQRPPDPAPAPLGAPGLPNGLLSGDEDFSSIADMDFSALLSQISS

[14] = molecular target: Transcription factor p65 (Homo sapiens) (UniProt Q04206); test: Inhibition of TNFalpha-stimulated NF-kB p65 phosphorylation at Ser-276 residue in HUVEC up to 20 uM preincubated with cells followed by TNFalpha stimulation measured after 30 mins by Western blot method
[15] = molecular target: Transcription factor p65 (Homo sapiens) (UniProt Q04206); test: Inhibition of TNFalpha-stimulated NF-kB p65 nuclear translocation in HUVEC up to 20 uM preincubated with cells followed by TNFalpha stimulation measured after 30 mins by Western blot method
Homo sapiens [16] = species: Homo sapiens; test: Inhibition of TNFalpha-stimulated NF-kB in HUVEC assessed as reduction in TNFalpha mRNA level up to 20 uM preincubated with cells followed by TNFalpha stimulation measured after 30 mins by RT-PCR method
Homo sapiens [17] = species: Homo sapiens; test: Inhibition of TNFalpha-stimulated NF-kB in HUVEC assessed as reduction in ICAM1 mRNA level up to 20 uM preincubated with cells followed by TNFalpha stimulation measured after 30 mins by RT-PCR method
HUVEC = test: Cytotoxicity against HUVEC assessed as reduction in cell viability up to 20 uM after 24 hrs by MTT assay; format: cell-based; conditions: human
[18] = molecular target: MAP kinase p38 (Homo sapiens) (UniProt O15264+Q15759+Q16539+P53778); test: Inhibition of TNFalpha-stimulated MAPK p38 phosphorylation in HUVEC preincubated with cells followed by TNFalpha stimulation measured after 30 mins by Western blot method
[19] = molecular target: c-Jun N-terminal kinase, JNK (Homo sapiens) (UniProt P45983+P53779+P45984); test: Inhibition of TNFalpha-stimulated JNK phosphorylation in HUVEC up to 20 uM preincubated with cells followed by TNFalpha stimulation measured after 30 mins by Western blot method

| inhibition [11] | inhibition [12] | inhibition [13] | inhibition [14] | inhibition [15] | inhibition (Homo sapiens [16]) | inhibition (Homo sapiens [17]) | inhibition [18] | inhibition [19] | Structure (SMILES) | inhibition (Rattus norvegicus [1]) | Activity (Rattus norvegicus [2]) [µg/g] | Activity (Rattus norvegicus [3]) | Activity (Rattus norvegicus [4]) | Activity (Rattus norvegicus [5]) | Activity (Rattus norvegicus [6]) | Activity (Rattus norvegicus [7]) | Activity (Rattus norvegicus [8]) | Activity (Rattus norvegicus [9]) | Activity (Rattus norvegicus [10]) | Activity (HUVEC) |
| --- | --- | --- | --- | --- | --- | --- | --- | --- | --- | --- | --- | --- | --- | --- | --- | --- | --- | --- | --- | --- |
|  |  |  |  |  |  |  |  |  | CC1(C)O[C@@H]2C[C@H]3[C@@H]4CCC5=CC(=O)C=C[C@]5(C)[C@@]4(F)[C@@H](O)C[C@]3(C)[C@]2(C(=O)CO)O1 [TRIAMCINOLONE ACETONIDE] | Active | 36.33 | 19 | Active | Active |  |  |  |  |  |  |
| Dose-dependent effect | Dose-dependent effect | Active | Active | Active | Active | Active | Dose-dependent effect | inactive | CC1=C[C@]2(C(C)(C)O)C[C@]3(OC2=O)[C@@H](C)CC[C@@H]13 | Active | 43.53 | 25 | Active | Active | Non-Toxic | Non-Toxic | Non-Toxic | Non-Toxic | Non-Toxic | Non-Toxic |

— ChEMBL document CHEMBL4007468, “Curcumolide reduces diabetic retinal vascular leukostasis and leakage partly via inhibition of the p38MAPK/NF-κ B signaling” (Bioorg Med Chem Lett, 2017)
